Assay results from ChEMBL document CHEMBL3885881, “DrugMatrix”.

Species on record: Rattus norvegicus
Assay: DrugMatrix - Regimen: Daily Repeat
Type: toxicity, organism-based, Sprague-Dawley
Parameters: regimen Daily Repeat, gender Male, age 6-8 weeks
Conditions: in vivo, po, route oral GAVAGE, vehicle 100 % WATER; for ABSOLUTE BASOPHIL / ABSOLUTE EOSINOPHIL / ABSOLUTE LYMPHOCYTE / ABSOLUTE MONOCYTE / ABSOLUTE SEGMENTED NEUTROPHIL / BASOPHIL / EOSINOPHIL / ERYTHROCYTE COUNT / HEMATOCRIT / HEMOGLOBIN / LEUKOCYTE COUNT / LYMPHOCYTE / MEAN CORPUSCULAR HEMOGLOBIN / MEAN CORPUSCULAR HEMOGLOBIN CONCENTRATION / MEAN CORPUSCULAR VOLUME / MONOCYTE / NEUTROPHIL / NUCLEATED RED BLOOD CELLS / PLATELET COUNT: tissue Blood; for ALANINE AMINOTRANSFERASE / ALBUMIN / ALKALINE PHOSPHATASE / ASPARTATE AMINOTRANSFERASE / BLOOD UREA NITROGEN / CARBON DIOXIDE / CHLORIDE / CHOLESTEROL / CREATINE PHOSPHOKINASE / CREATININE / GLUCOSE / LACTATE DEHYDROGENASE / LIPASE / PHOSPHORUS / POTASSIUM / SODIUM / TOTAL BILIRUBIN / TOTAL PROTEIN / URIC ACID: tissue Plasma
[1] = 0 mg/kg, 72 h, dose level Control, time 3 day
[2] = 0 mg/kg, 120 h, dose level Control, time 5 day
[3] = 11 mg/kg, 72 h, dose level Low, time 3 day

Q: What does the source list for `CNS(=O)(=O)Cc1ccc2[nH]cc(CCN(C)C)c2c1`?
A: ABSOLUTE BASOPHIL [1]: 0 CELLS/uL; ABSOLUTE EOSINOPHIL [1]: 86.33 CELLS/uL; ABSOLUTE LYMPHOCYTE [1]: 12090.17 CELLS/uL; ABSOLUTE MONOCYTE [1]: 166.67 CELLS/uL; ABSOLUTE SEGMENTED NEUTROPHIL [1]: 1090.17 CELLS/uL; BASOPHIL [1]: 0%; EOSINOPHIL [1]: 0.67%; ERYTHROCYTE COUNT [1]: 5.57 x10E6/uL; HEMATOCRIT [1]: 35.33%; HEMOGLOBIN [1]: 13.83 G/DL; LEUKOCYTE COUNT [1]: 13.43 x10E3/uL; LYMPHOCYTE [1]: 89.83%; MEAN CORPUSCULAR HEMOGLOBIN [1]: 24.88 pg; MEAN CORPUSCULAR HEMOGLOBIN CONCENTRATION [1]: 39.15 G/DL; MEAN CORPUSCULAR VOLUME [1]: 63.52 fL; MONOCYTE [1]: 1.17%; NEUTROPHIL [1]: 8.33%; NUCLEATED RED BLOOD CELLS [1]: 0 /100WBC; PLATELET COUNT [1]: 1181.33 x10E3/uL; ALANINE AMINOTRANSFERASE [1]: 48.33 u/L; ALBUMIN [1]: 4.1 G/DL; ALKALINE PHOSPHATASE [1]: 395 u/L; ASPARTATE AMINOTRANSFERASE [1]: 81.83 u/L; BLOOD UREA NITROGEN [1]: 15.83 mg/dL; CARBON DIOXIDE [1]: 24.17 mmol/L; CHLORIDE [1]: 103.83 MEQ/L; CHOLESTEROL [1]: 63.67 mg/dL; CREATINE PHOSPHOKINASE [1]: 372.83 u/L; CREATININE [1]: 0.18 mg/dL; GLUCOSE [1]: 173.83 mg/dL; LACTATE DEHYDROGENASE [1]: 188.33 u/L; LIPASE [1]: 9.5 u/L; PHOSPHORUS [1]: 11.95 mg/dL; POTASSIUM [1]: 5.99 MEQ/L; SODIUM [1]: 144.43 MEQ/L; TOTAL BILIRUBIN [1]: 0.15 mg/dL; TOTAL PROTEIN [1]: 5.95 G/DL; URIC ACID [1]: 1.82 mg/dL; ABSOLUTE BASOPHIL [2]: 0 CELLS/uL; ABSOLUTE EOSINOPHIL [2]: 26.67 CELLS/uL; ABSOLUTE LYMPHOCYTE [2]: 7583.83 CELLS/uL; ABSOLUTE MONOCYTE [2]: 131.33 CELLS/uL; ABSOLUTE SEGMENTED NEUTROPHIL [2]: 674.83 CELLS/uL; BASOPHIL [2]: 0%; EOSINOPHIL [2]: 0.33%; ERYTHROCYTE COUNT [2]: 5.78 x10E6/uL; HEMATOCRIT [2]: 36.48%; HEMOGLOBIN [2]: 14.03 G/DL; LEUKOCYTE COUNT [2]: 8.42 x10E3/uL; LYMPHOCYTE [2]: 89.83%; MEAN CORPUSCULAR HEMOGLOBIN [2]: 24.3 pg; MEAN CORPUSCULAR HEMOGLOBIN CONCENTRATION [2]: 38.52 G/DL; MEAN CORPUSCULAR VOLUME [2]: 63.15 fL; MONOCYTE [2]: 1.67%; NEUTROPHIL [2]: 8.17%; NUCLEATED RED BLOOD CELLS [2]: 0 /100WBC; PLATELET COUNT [2]: 1186.67 x10E3/uL; ALANINE AMINOTRANSFERASE [2]: 50.17 u/L; ALBUMIN [2]: 4.07 G/DL; ALKALINE PHOSPHATASE [2]: 367.5 u/L; ASPARTATE AMINOTRANSFERASE [2]: 81.67 u/L; BLOOD UREA NITROGEN [2]: 16.17 mg/dL; CARBON DIOXIDE [2]: 32.33 mmol/L; CHLORIDE [2]: 101.5 MEQ/L; CHOLESTEROL [2]: 65.33 mg/dL; CREATINE PHOSPHOKINASE [2]: 255.33 u/L; CREATININE [2]: 0.17 mg/dL; GLUCOSE [2]: 139.33 mg/dL; LACTATE DEHYDROGENASE [2]: 95 u/L; LIPASE [2]: 10.5 u/L; PHOSPHORUS [2]: 10.38 mg/dL; POTASSIUM [2]: 6.11 MEQ/L; SODIUM [2]: 145.55 MEQ/L; TOTAL BILIRUBIN [2]: 0.17 mg/dL; TOTAL PROTEIN [2]: 5.98 G/DL; URIC ACID [2]: 0.93 mg/dL; ABSOLUTE BASOPHIL [3]: 0 CELLS/uL; ABSOLUTE EOSINOPHIL [3]: 39 CELLS/uL; ABSOLUTE LYMPHOCYTE [3]: 10656.67 CELLS/uL; ABSOLUTE MONOCYTE [3]: 38.67 CELLS/uL; ABSOLUTE SEGMENTED NEUTROPHIL [3]: 1065.67 CELLS/uL; BASOPHIL [3]: 0%; EOSINOPHIL [3]: 0.33%; ERYTHROCYTE COUNT [3]: 5.76 x10E6/uL; HEMATOCRIT [3]: 36.33%; HEMOGLOBIN [3]: 13.93 G/DL; LEUKOCYTE COUNT [3]: 11.8 x10E3/uL; LYMPHOCYTE [3]: 90.33%; MEAN CORPUSCULAR HEMOGLOBIN [3]: 24.2 pg; MEAN CORPUSCULAR HEMOGLOBIN CONCENTRATION [3]: 38.37 G/DL; MEAN CORPUSCULAR VOLUME [3]: 63.07 fL; MONOCYTE [3]: 0.33%; NEUTROPHIL [3]: 9%; NUCLEATED RED BLOOD CELLS [3]: 0 /100WBC; PLATELET COUNT [3]: 1289 x10E3/uL; ALANINE AMINOTRANSFERASE [3]: 45 u/L; ALBUMIN [3]: 3.83 G/DL; ALKALINE PHOSPHATASE [3]: 321.33 u/L; ASPARTATE AMINOTRANSFERASE [3]: 76.67 u/L; BLOOD UREA NITROGEN [3]: 14.67 mg/dL; CARBON DIOXIDE [3]: 26 mmol/L; CHLORIDE [3]: 103.33 MEQ/L; CHOLESTEROL [3]: 64.67 mg/dL; CREATINE PHOSPHOKINASE [3]: 413.33 u/L; CREATININE [3]: 0.14 mg/dL; GLUCOSE [3]: 155 mg/dL; LACTATE DEHYDROGENASE [3]: 166.33 u/L; LIPASE [3]: 8.67 u/L; PHOSPHORUS [3]: 12.6 mg/dL; POTASSIUM [3]: 6.24 MEQ/L; SODIUM [3]: 143.73 MEQ/L; TOTAL BILIRUBIN [3]: 0.17 mg/dL; TOTAL PROTEIN [3]: 5.63 G/DL; URIC ACID [3]: 1.4 mg/dL
